Results on two compounds are retold here after paper PMC5509550, “Development of a Novel Lead that Targets M. tuberculosis Polyketide Synthase 13” (Cell, 2017).

The test system of assay [1] is Mtb mc^27000. Type of assay: cell-based, Mycobacterium tuberculosis.
Assay [2] deals with TAM16-resistant Mtb mutants (Pks13 D1644G or D1644Y). Format: cell-based, Mycobacterium tuberculosis.

≈ marks a conversion by molar mass, not a printed value.

`NNC(=O)c1ccncc1` [INH, Isoniazid]: the “frequency of resistance observed for INH” value in assay [1] is on record as 1 × 10^−6. The “MIC against TAM16-resistant mutants” value in assay [2] is 0.2 µM (≈ 0.0274 µg/mL). `CO[C@H]1/C=C/O[C@@]2(C)Oc3c(C)c(O)c4c(O)c(c(/C=N/N5CCN(C)CC5)c(O)c4c3C2=O)NC(=O)/C(C)=C\C=C\[C@H](C)[C@H](O)[C@@H](C)[C@@H](O)[C@@H](C)[C@H](OC(C)=O)[C@@H]1C` [RIF, Rifampicin]: the “MIC against TAM16-resistant mutants” value in assay [2] came to 0.04 µM (≈ 0.0329 µg/mL).
